Legend:
[1] = test system: HaCaT (Human keratinocyte) cell line; test: Mitochondrial membrane potential by JC-1 assay; format: cell-based; settings: 20 h
Protocol: For testing Apoptosis the Human Keratinocytes (HaCaT) cell line has been employed. The growth conditions are DMEM containing 1% FBS. […] Test concentration range is IS181 is tested at the highest (Qualitative analysis) effective concentrations selected on the basis of Quantitative JC-1 assay. The method of estimation is Mitochondrial membrane depolarization by JC-1 assay (Early apoptosis), LDH enzyme release (Necrosis). Treatment regimen & time points are JC-1 assay—Single addition, 20 h; LDH assay—Single addition, 24 h; Positive control: Triton-X-100, Doxorubicin-hydrochloride
Quantitative effect on Δψm (Red fluorescence/Green fluorescence) in HaCaT cells post 20 hours of treatment. […] Evaluation (Qualitative and quantitative) of differential JC-1 staining in treated cells after 20 h on incubation with the test peptides.

[2] = test system: Human endothelial cells (EA.hy 926); test: Tube formation in endothelial cells; format: cell-based; set-up: endothelial morphogenesis on matrigel: dose or concentration left out as unconfirmed; settings: Ea.hy.926, 8 hours
Protocol: Cell lines: Human endothelial cells (EA.Hy 926); test item: IS 181; treatment regimen; multiple additions (2)—48 hours; concentration range: 100 6 g/ml to 5000 6 g/ml (Duplicate wells); sera condition: medium containing 1% FBS. Non-cytotoxic concentrations of IS 181 were determined using MTT assay. EA.hy926 cells were plated on ECMatrix solution. Cells were treated with IS 181 for 8 hours. Endothelial tubes were visualized under inverted light microscope at 40× magnification and images were captured. End point: visual pattern recognition and scoring of photomicrographs (FIGS. 11A-11G) based on Table-11 below: […]

[3] = test system: TNF-α; test: TNF-α level in TNF-α stimulated HaCaT; format: cell-based, Human; settings: 24 h
Protocol: Effect on pro-inflammatory cytokines against TNF-α/LPS+PMA stimulation: TNF-α; IFN-γ; TARC; TSLP; IL-6; IL-8: Cell lines: Human keratinocytes (HaCaT); test item (TI); IS181; experimental steps: pre-treatment of cells with TI for 2 hours; stimulation with TNF-α: 20 ng/ml; stimulation with LPS+PMA-10 μg/ml LPS+40 ng/ml PMA; supernatant collection for cytokine analysis after 24 hours; concentration range: 0.1 μg/ml-100 μg/ml (duplicate wells); cytokines: TNF-α; IFN-γ; TARC; TSLP; IL-6; IL-8. Method of estimating cytokines: ELISA; positive control: dexamethasone.
Cell line: HaCaT (Human Keratinocytes); TI Treatment regimen: Pretreatment for 2 h; TI Concentration range: 0.1 μg/ml-100 μg/ml (duplicate wells); TNF-α stimulation: 20 ng/ml; LPS+PMA stimulation: 10 μg/ml LPS+40 ng/ml PMA; Time point for supernatants collection: 24 h; Method of estimation: ELISA; Positive control: Dexamethasone

[4] = target: JAK1 (Homo sapiens, UniProt P23458); test: Biochemical kinase assay JAK1
Protocol: Test system: cell free assays; test items: IS181; concentrations tested: 1 ng/ml-5000 μg/ml; Kinases: a) Cell free assays: EGFR (ErbB1); FLT1 (VEGFR1); JAK1; JAK3 MAP2K1 (MEK1); PDGFRA (PDGFR alpha); PRKCA (PKC alpha); b) cell based assay: JAK-STAT.

[5] = test system: Cyclobutane Pyrimidine Dimers (CPD); test: UVB damage: cyclobutane pyrimidine dimers (ELISA); format: cell-based, human; settings: HaCaT
Protocol: Effect on Cyclobutane Pyrimidine Dimers (CPD); Effect on 8-oxo-G formation: Cell line: HaCaT (human keratinocytes); test items: IS 181; concentration range: 0.1-100 μg/ml (Duplicate wells). Method of estimation: Plating of cells; Sera starvation with 0.1% FBS (24 hours); treatment of cells with test items (24 hours); UVB damage (30 mJ/cm2)+Test items addition (24 hours); Cyclobutane pyrimidine dimers (CPD) and 8-oxo-G estimation using ELISA.

[6] = test system: Imiquimod (IMQ) induced psoriasis; test: Imiquimod (IMQ) induced psoriasis model; format: in vivo, BALB/C mice
Protocol: The Experiment was carried out in Imiquimod (IMQ) induced psoriasis model in mice. […] […] There was a trend in animals treated with IS-181 through s.c. in ear thickness (life phase), punch biopsy, spleen weight and histopathology. […] Thus, […] In the view of this, it may be worth to explore the potency of the peptide for the diseases where TNFα playing central role in pathogenesis.

Sequence of JAK1 (P23458 whole entry): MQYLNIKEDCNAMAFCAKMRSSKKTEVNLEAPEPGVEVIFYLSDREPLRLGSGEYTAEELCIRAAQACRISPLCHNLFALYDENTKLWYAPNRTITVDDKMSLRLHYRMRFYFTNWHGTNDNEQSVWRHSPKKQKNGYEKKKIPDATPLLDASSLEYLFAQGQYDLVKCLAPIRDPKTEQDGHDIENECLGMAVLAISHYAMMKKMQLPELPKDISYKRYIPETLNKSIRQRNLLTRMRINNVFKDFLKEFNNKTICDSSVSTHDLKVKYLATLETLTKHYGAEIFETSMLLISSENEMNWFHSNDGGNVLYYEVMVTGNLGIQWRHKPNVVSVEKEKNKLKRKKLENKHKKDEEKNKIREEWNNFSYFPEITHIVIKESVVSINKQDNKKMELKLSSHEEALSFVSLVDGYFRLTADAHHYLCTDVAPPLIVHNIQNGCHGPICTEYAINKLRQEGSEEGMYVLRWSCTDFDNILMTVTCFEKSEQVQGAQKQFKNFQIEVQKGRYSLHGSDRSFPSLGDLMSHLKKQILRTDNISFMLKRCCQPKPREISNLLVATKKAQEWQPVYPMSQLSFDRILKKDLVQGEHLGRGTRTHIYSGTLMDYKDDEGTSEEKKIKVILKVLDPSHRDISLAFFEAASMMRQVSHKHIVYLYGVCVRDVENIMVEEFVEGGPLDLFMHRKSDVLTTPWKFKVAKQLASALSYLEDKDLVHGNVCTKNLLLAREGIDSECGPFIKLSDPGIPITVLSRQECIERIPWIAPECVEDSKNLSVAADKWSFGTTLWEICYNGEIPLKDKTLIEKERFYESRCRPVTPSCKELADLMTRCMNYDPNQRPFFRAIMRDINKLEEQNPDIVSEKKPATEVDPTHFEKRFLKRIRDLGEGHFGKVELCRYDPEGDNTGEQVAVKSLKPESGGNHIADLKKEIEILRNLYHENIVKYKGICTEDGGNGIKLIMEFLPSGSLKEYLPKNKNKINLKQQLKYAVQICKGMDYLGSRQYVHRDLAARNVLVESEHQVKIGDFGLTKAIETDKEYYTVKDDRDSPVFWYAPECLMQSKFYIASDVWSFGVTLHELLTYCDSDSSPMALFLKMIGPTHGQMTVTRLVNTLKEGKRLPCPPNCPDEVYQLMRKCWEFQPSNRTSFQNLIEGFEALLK

H-WVQRVVEKFLK-OH [IS181, H-Trp-Val-Gln-Arg-Val-Val-Glu-Lys-Phe-Leu-Lys-OH]
Green fluorescence intensity (RFU) ([1]; 400 μg/ml): 13.67 ± 1.89 RFU | Red fluorescence intensity (RFU) ([1]; 400 μg/ml): 134.33 ± 32.06 RFU | Red fluorescence intensity/Green fluorescence intensity ([1]; 400 μg/ml): 9.83 | Green fluorescence intensity (RFU) ([1]; 475 μg/ml): 14.83 ± 3.54 RFU | Red fluorescence intensity (RFU) ([1]; 475 μg/ml): 150.67 ± 11.31 RFU | Red fluorescence intensity/Green fluorescence intensity ([1]; 475 μg/ml): 10.16 | Green fluorescence intensity (RFU) ([1]; 500 μg/ml): 14.5 ± 2.12 RFU | Red fluorescence intensity (RFU) ([1]; 500 μg/ml): 152.83 ± 31.82 RFU | Red fluorescence intensity/Green fluorescence intensity ([1]; 500 μg/ml): 10.54 | Green fluorescence intensity (RFU) ([1]; 750 μg/ml): 17.67 ± 4.24 RFU | Red fluorescence intensity (RFU) ([1]; 750 μg/ml): 126.17 ± 6.36 RFU | Red fluorescence intensity/Green fluorescence intensity ([1]; 750 μg/ml): 7.14 | decrease in mitochondrial membrane potential (R/G ratio) as compared to untreated cells ([1]; 750 μg/ml to 2 mg/ml): 34% to 88.6% | Green fluorescence intensity (RFU) ([1]; 1000 μg/ml): ^#25.83 ± 5.42^ RFU | Red fluorescence intensity (RFU) ([1]; 1000 μg/ml): ^#102.25 ± 4.60 ^ RFU | Red fluorescence intensity/Green fluorescence intensity ([1]; 1000 μg/ml): 3.96 | Green fluorescence intensity (RFU) ([1]; 2000 μg/ml): #41.25 ± 15.20 RFU | Red fluorescence intensity (RFU) ([1]; 2000 μg/ml): ^#50.58 ± 0.12^ RFU | Red fluorescence intensity/Green fluorescence intensity ([1]; 2000 μg/ml): **1.23 | endothelial morphogenesis on matrigel [2]: Complete inhibition | endothelial tube formation ([2]; 1 6 g/ml to 1000 6 g/m/1): block endothelial tube formation | TNF-α % decrease with respect to TNF-α ([3]; 0.1 μg/ml): −7.5% | TNF-α Conc ([3]; 0.1 μg/ml): 22731.8 pg/mL | TNF-α % decrease with respect to TNF-α ([3]; 1 μg/ml): 5.8% | TNF-α Conc ([3]; 1 μg/ml): 19924.1 pg/mL | TNF-α % decrease with respect to TNF-α ([3]; 5 μg/ml): −8.1% | TNF-α Conc ([3]; 5 μg/ml): 22852.1 pg/mL | TNF-α % decrease with respect to TNF-α ([3]; 10 μg/ml): −15.7% | TNF-α Conc ([3]; 10 μg/ml): 24469.9 pg/mL | TNF-α % decrease with respect to TNF-α ([3]; 100 μg/ml): −18.8% | TNF-α Conc ([3]; 100 μg/ml): 25125.0 pg/mL | inhibition at 10 µg/mL ([4]; 10 μg/ml): 14% | inhibition at 50 µg/mL ([4]; cell free, 50 μg/ml): 14% | inhibition at 100 µg/mL ([4]; cell free, 100 μg/ml): -42% | inhibition at 250 µg/mL ([4]; cell free, 250 μg/ml): -93% | inhibition at 500 µg/mL ([4]; cell free, 500 μg/ml): -185% | decrease in CPD ([5]; UVB 30 mJ/cm2, 10 μg/ml): 28% | decrease in CPD ([5]; UVB 30 mJ/cm2, 100 μg/ml): 26% | histopathology ear thickness ([6]; 0.3 mg/kg, s.c.): maximum reduction in ear thickness | hyperkeratosis ([6]; 1.2 mg/kg i.m. and i.v.): reduction in hyperkeratosis | reduction in IL-23 (ear homogenate) compared to disease control ([6]; BALB/C mice, 0.3 mg/kg): 62.35% | reduction in TNFα (ear homogenate) compared to disease control ([6]; BALB/C mice, 0.3 mg/kg s.c.): 24.98% | reduction in TNFα (ear homogenate) compared to disease control ([6]; BALB/C mice, 1.2 mg/kg i.m.): 21.28% | dorsal skin thickness ([6]; across the groups except 0.6 mg/kg s.c. and 1.2 mg/kg i.m.): mild reduction in dorsal skin thickness, however which was not significant | punch biopsy weight ([6]; across the groups except 1.2 mg/kg, i.m.): mild reduction in punch biopsy weight, however which was not significant | IL-17A (ear homogenate) ([6]; across the treated groups): No changes in IL-17A | clinical score ([6]; across the treated groups): No substantial changes in clinical score | erythema index ([6]; across the treated groups): No changes in erythema index | ear thickness (life phase) compared to disease control ([6]; s.c.): mild reduction in ear thickness | edema compared to disease control ([6]; s.c. (1.2, 0.6 and 0.3 mg/kg)): reduction in edema | inflammatory cells infiltration compared to disease control ([6]; s.c. (1.2, 0.6 and 0.3 mg/kg) and 1.2 mg/kg i.v.): reduction in inflammatory cells infiltration | Rete peg proliferation ([6]; s.c. (at 1.2, 0.6 and 0.3, mg/kg)): reduction in Rete peg proliferation | spleen weight ([6]; s.c. route, 1.2 mg/kg): maximum reduction in spleen weight, however which was not significant | hyperkeratosis ([6]; s.c., 0.3 mg/kg): maximum effect
